Laboratory results as given in PubChem BioAssay (NCI).
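Dose response: 5 concentrations. Exposure: 48 h. Format: 96-well plates. Endpoint: linear interpolation; highest concentration if not reached. TGI: total growth inhibition.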

Tests used:
Test in all cases: NCI tumour cell line growth inhibition, 48 h
[1] = system: HOP-92 NSCLC
[2] = system: DMS 114 small cell lung
[3] = system: KM20L2 colon
[4] = system: RXF 393 renal
[5] = system: SN12C renal
[6] = system: OVCAR-3 ovarian
[7] = system: NCI-H522 lung
[8] = system: 786-0 renal
[9] = system: CAKI-1 renal
[10] = system: M14 melanoma
[11] = system: HCC-2998 colon
[12] = system: LOX IMVI melanoma
[13] = system: EKVX NSCLC
[14] = system: SNB-19 CNS
[15] = system: SNB-75 CNS
[16] = system: RXF-631 renal
[17] = system: SF-268 CNS
[18] = system: MALME-3M melanoma
[19] = system: OVCAR-4 ovarian
[20] = system: NCI-H226 lung
[21] = system: RPMI-8226 leukemia
[22] = system: SK-MEL-2 melanoma
[23] = system: ACHN renal
[24] = system: HOP-62 NSCLC
[25] = system: SF-539 CNS
[26] = system: SW-620 colon
[27] = system: A549 NSCLC
[28] = system: SK-MEL-28 melanoma
[29] = system: OVCAR-8 ovarian
[30] = system: UACC-62 melanoma
[31] = system: IGROV1 ovarian
[32] = system: SF-295 CNS
[33] = system: SK-OV-3 ovarian
[34] = system: HCT-116 colon
[35] = system: DLD-1 colon
[36] = system: UACC-257 melanoma
[37] = system: HL-60(TB) leukemia
[38] = system: NCI-H23 lung
[39] = system: TK-10 renal
[40] = system: LXFL 529 NSCLC
[41] = system: COLO 205 colon
[42] = system: OVCAR-5 ovarian
[43] = system: XF 498 CNS
[44] = system: M19-MEL melanoma
[45] = system: HT29 colon

Measured: TGI

NNC(=S)NN/C=C(\C=Nc1ccccc1)[N+](=O)[O-]
> 100 µM: all assays above
